Assay results as given in patent US7326718B2, “8-Substituted imidazopyridines” (Altana Pharma AG, priority 2002, dated 2008).

Columns and labels:
[1] = system: pentagastrin-stimulated acid secretion of the perfused rat stomach; assay: Secretion-inhibiting action on the perfused rat stomach (pentagastrin-stimulated acid secretion, intraduodenal administration in vivo); settings: dose 1 μmol/kg i.d., anaesthetized female CD rat, pentagastrin-stimulated (1 μg/kg i.v. infusion)
Text: Testing of the Secretion-Inhibiting Action on the Perfused Rat Stomach
In Table A which follows, the influence of the compounds according to the invention on the pentagastrin-stimulated acid secretion of the perfused rat stomach after intraduodenal administration in vivo is shown.
The abdomen of anaesthetized rats (CD rat, female, 200-250 g; 1.5 g/kg i.m. urethane) was opened after tracheotomy by a median upper abdominal incision and a PVC catheter was fixed transorally in the oesophagus and another via the pylorus such that the ends of the tubes just projected into the gastric lumen. The catheter leading from the pylorus led outward into the right abdominal wall through a side opening.
After thorough rinsing (about 50-100 ml), warm (37° C.) physiological NaCl solution was continuously passed through the stomach (0.5 ml/min, ph 6.8-6.9; Braun-Unita I). The pH (pH meter 632, glass electrode EA 147; φ=5 mm, Metrohm) and, by titration with a freshly prepared 0.01N NaOH solution to ph 7 (Dosimat 665 Metrohm), the secreted HCl were determined in the effluent in each case collected at an interval of 15 minutes.
The gastric secretion was stimulated by continuous infusion of 1 μg/kg (=1.65 ml/h) of i.v. pentagastrin (left femoral vein) about 30 min after the end of the operation (i.e. after determination of 2 preliminary fractions). The substances to be tested were administered intraduodenally in a 2.5 ml/kg liquid volume 60 min after the start of the continuous pentagastrin infusion.
The body temperature of the animals was kept at a constant 37.8-38° C. by infrared irradiation and heat pads (automatic, stepless control by means of a rectal temperature sensor).

Structure (SMILES)	melting point [°C]	Inhibition of acid secretion (%) [1] [%]
COC(=O)c1cc(N[C@@H]2c3ccccc3C[C@H]2O)c2nc(C)c(C)n2c1 (relative stereo) [Example 1, Methyl 8-(trans-2,3-dihydro-2-hydroxy-1-indenylamino)-2,3-dimethyl-imidazo[1,2-a]pyridine-6-carboxylate]	261 to 262	–
Cc1nc2c(N[C@@H]3c4ccccc4C[C@H]3O)cc(C(=O)O)cn2c1C (relative stereo) [Example 2, 8-(trans-2,3-Dihydro-2-hydroxy-1-indenylamino)-2,3-dimethyl-imidazo[1,2-a]pyridine-6-carboxylic acid]	246 to 249	–
Cc1nc2c(O[C@@H]3c4ccccc4C[C@H]3O)cc(C(=O)O)cn2c1C (relative stereo) [Example 8, 8-(trans-2,3-Dihydro-2-hydroxy-1-indenyloxy)-2,3-dimethyl-imidazo[1,2-a]pyridine-6-carboxylic acid]	229 to 231	–
Cc1nc2c(O[C@@H]3c4ccccc4C[C@H]3O)cc(C(=O)N(C)C)cn2c1C (relative stereo) [Example 9, 8-(trans-2,3-Dihydro-2-hydroxy-1-indenyloxy)-6-(N,N-dimethylamino-carbonyl)-2,3-dimethyl-imidazo[1,2-a]pyridine]	–	>30
COCc1cc(O[C@@H]2c3ccccc3C[C@H]2O)c2nc(C)c(C)n2c1 (relative stereo) [Example 11, 8-(trans-2,3-Dihydro-2-hydroxy-1-indenyloxy)-6-methoxymethyl-2,3-dimethyl-imidazo[1,2-a]pyridine]	142 to 143	>30
Cc1nc2c(O[C@@H]3c4ccccc4CC[C@H]3O)cc(C(=O)N(C)C)cn2c1C.Cl (relative stereo) [Example 15, 6-(N,N-Dimethylamino-carbonyl)-2,3-dimethyl-8-(trans-1,2,3,4-tetrahydro-2-hydroxy-1-naphthalenyloxy)-imidazo[1,2-a]pyridine hydrochloride]	129	>30
COc1cccc2c1[C@@H](Oc1cc(C(=O)N(C)C)cn3c(C)c(C)nc13)[C@H](O)C2 (relative stereo) [Example 16, 8-(trans-2,3-Dihydro-2-hydroxy-7-methoxy-1-indenyloxy)-6-(N,N-dimethylamino-carbonyl)-2,3-dimethyl-imidazo[1,2-a]pyridine]	–	>30
Cc1nc2c(O[C@H]3c4ccccc4C[C@@H]3O)cc(C(=O)N(C)C)cn2c1C [Example 14, 8-[(1S,2S)-2,3-Dihydro-2-hydroxy-1-indenyloxy)-6-(N,N-dimethylamino-carbonyl)-2,3-dimethyl-imidazo[1,2-a]pyridine]	–	>30
Cc1cccc2c1[C@@H](Oc1cc(C(=O)N(C)C)cn3c(C)c(C)nc13)[C@H](O)C2 [Example 17]	–	>30
